Assays:
TCF4/beta-catenin [1] = target: T1, TCF4/beta-catenin (Homo sapiens, UniProt P35222+Q9NQB0); assay: Inhibition of human […]/Tcf4 interaction after 1 hr by fluorescence polarization assay; type: protein-complex assay
Homo sapiens [2] = species: Homo sapiens; assay: Selectivity ratio of Ki for human […]/APC-R3 interaction to Ki for human […]/Tcf4 interaction by alphascreen assay
Homo sapiens [3] = species: Homo sapiens; assay: Selectivity ratio of Ki for human […]/E-cadherin interaction to Ki for human […]/Tcf4 interaction by alphascreen assay
TCF4/beta-catenin [4] = target: T1, TCF4/beta-catenin; assay: Inhibition of human beta-catenin/Tcf4 interaction after 1 hr by alphascreen assay
[5] = target: Catenin beta-1/Adenomatous polyposis coli protein (Homo sapiens); assay: Inhibition of human beta-catenin/APC-R3 interaction after 1 hr by alphascreen assay
[6] = target: Catenin beta-1/Cadherin-1 (Homo sapiens); assay: Inhibition of human beta-catenin/E-cadherin interaction after 1 hr by alphascreen assay
Homo sapiens [7] = species: Homo sapiens; assay: Selectivity ratio of Ki for human […]/APC-R3 interaction to Ki for human […]/Tcf4 interaction by fluorescence polarization assay
Homo sapiens [8] = species: Homo sapiens; assay: Selectivity ratio of Ki for human […]/E-cadherin interaction to Ki for human […]/Tcf4 interaction by fluorescence polarization assay
[9] = target: Catenin beta-1/Adenomatous polyposis coli protein (Homo sapiens); assay: Inhibition of human beta-catenin/APC-R3 interaction after 1 hr by fluorescence polarization assay
[10] = target: Catenin beta-1/Cadherin-1 (Homo sapiens); assay: Inhibition of human beta-catenin/E-cadherin interaction after 1 hr by fluorescence polarization assay

T1 sequence (P35222 whole entry): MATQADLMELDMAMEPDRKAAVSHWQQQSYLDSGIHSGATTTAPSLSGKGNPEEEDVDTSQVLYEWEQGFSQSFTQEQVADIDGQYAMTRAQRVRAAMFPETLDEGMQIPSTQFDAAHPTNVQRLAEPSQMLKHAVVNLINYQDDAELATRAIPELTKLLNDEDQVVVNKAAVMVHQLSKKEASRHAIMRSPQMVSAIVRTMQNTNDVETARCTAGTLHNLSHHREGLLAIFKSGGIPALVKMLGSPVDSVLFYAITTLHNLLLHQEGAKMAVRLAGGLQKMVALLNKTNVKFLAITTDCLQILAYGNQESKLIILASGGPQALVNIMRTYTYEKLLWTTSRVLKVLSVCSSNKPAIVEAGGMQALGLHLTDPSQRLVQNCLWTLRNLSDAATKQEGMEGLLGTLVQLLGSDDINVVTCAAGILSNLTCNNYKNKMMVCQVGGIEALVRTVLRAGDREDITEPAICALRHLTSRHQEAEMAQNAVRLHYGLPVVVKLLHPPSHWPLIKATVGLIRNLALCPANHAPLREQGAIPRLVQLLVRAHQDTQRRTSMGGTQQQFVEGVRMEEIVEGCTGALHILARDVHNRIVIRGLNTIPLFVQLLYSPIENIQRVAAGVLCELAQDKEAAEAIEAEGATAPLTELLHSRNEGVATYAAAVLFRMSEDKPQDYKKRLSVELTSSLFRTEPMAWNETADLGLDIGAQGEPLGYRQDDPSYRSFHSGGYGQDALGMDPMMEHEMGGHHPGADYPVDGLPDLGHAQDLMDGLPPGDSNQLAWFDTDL
T1 sequence (Q9NQB0 whole entry): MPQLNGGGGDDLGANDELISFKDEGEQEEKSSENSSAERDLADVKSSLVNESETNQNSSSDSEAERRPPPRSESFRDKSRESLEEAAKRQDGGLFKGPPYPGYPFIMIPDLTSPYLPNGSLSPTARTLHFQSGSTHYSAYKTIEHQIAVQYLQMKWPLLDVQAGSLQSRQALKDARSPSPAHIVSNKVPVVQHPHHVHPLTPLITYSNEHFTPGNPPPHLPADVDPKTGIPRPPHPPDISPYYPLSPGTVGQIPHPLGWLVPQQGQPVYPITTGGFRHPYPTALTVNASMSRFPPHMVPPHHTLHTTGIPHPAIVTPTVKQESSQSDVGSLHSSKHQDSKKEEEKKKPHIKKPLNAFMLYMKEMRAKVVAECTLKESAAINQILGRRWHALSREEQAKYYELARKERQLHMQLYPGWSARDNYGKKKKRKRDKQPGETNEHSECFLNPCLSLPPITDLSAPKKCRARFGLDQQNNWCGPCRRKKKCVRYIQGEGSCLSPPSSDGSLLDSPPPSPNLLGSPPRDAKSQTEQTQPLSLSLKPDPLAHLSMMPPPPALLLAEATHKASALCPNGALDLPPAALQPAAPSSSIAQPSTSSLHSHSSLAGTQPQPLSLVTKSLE

| Ratio Ki (Homo sapiens [2]) | Ratio Ki (Homo sapiens [3]) | Ki (TCF4/beta-catenin [4]) [µM] | Ki [5] [µM] | Ki [6] [µM] | Ratio Ki (Homo sapiens [7]) | Ratio Ki (Homo sapiens [8]) | Ki [9] [µM] | Ki [10] [µM] | Structure (SMILES) | Ki (TCF4/beta-catenin [1]) [µM] |
| --- | --- | --- | --- | --- | --- | --- | --- | --- | --- | --- |
|  |  |  |  |  |  |  |  |  | COc1c(C[C@@H](C)OC(=O)Oc2ccc(O)cc2)c2c3c(C[C@@H](C)OC(=O)c4ccccc4)c(OC)c(=O)c4c(O)cc(OC)c(c5c(OC)cc(O)c(c1=O)c52)c43 [CALPHOSTIN C] | 18 |
| 3.8 | 4.8 | 29 | 110 | 140 |  |  |  |  | COc1cccc(/C=C2/SC(=S)N(CCC(=O)O)C2=O)c1OC |  |
| 10.5 | 3.3 | 21 | 220 | 68 | 25 | 16.3 | 400 | 260 | C=CCN1C(=O)/C(=N\NC(=O)C(=O)Nc2cccc(C(=O)O)c2)c2ccccc21 | 16 |

Source: ChEMBL document CHEMBL2321680, “High-Throughput Selectivity Assays for Small-Molecule Inhibitors of β-Catenin/T-Cell Factor Protein-Protein Interactions” (ACS Med Chem Lett, 2013)
